From patent US11999723B2, “Pyrazole-containing macrophage migration inhibitory factor inhibitors” (priority 2018, dated 2024)
Values after ≈ are worked out from the molar mass of the structure shown. Values joined by “and” are separate entries in the source; they are usually repeats but may differ in a detail not shown here. Equal entries are not always repeated. Where two headings read alike, the source gives them in different places.

Columns and labels:
[1] = Aqueous solubility, shake-flask method; format: physicochemical; settings: Britton-Robinson buffer at pH 6.5; for solubility at 48 h: 30 °C, aqueous buffer, thermodynamic from solid
Protocol: Aqueous solubility values of selected compounds were obtained via the shake-flask method. The solid sample (1-4 mg) was suspended in 1.5-2.0 mL Britton-Robinson (BR) buffer (0.04 M acetic acid, 0.04 M phosphoric acid, 0.04 M boric acid, pH 6.5). The mixture, containing excess undissolved compound, was stirred at 30° C. for 48 hours. The saturated solution was separated from the precipitate by filtration through a 0.45 μm polyethersulfone membrane (VWR International). The filtrate was diluted with BR buffer if necessary, then cut with an equal volume of DMSO. UV-vis absorbance was measured with an Agilent 8453 UV-visible Spectroscopy System (200-900 nm). Calibration curves were prepared with sample concentrations ranging from 0.24 μg/mL-0.25 mg/mL in 50:50 DMSO/BR buffer. Reported solubility results are the average values of two shake-flask experiments run in parallel. Piroxicam (purchased from Sigma-Aldrich) was used as a control, using BR buffer at pH 3.73.
The compounds reported here are listed in Table 2 along with the results from the tautomerase assay. The identity of assayed compounds was confirmed by ^1H and ^13C NMR and high-resolution mass spectrometry; HPLC analyses established purity as >95%. As in prior studies, the inhibition constants Ki were determined using HPP as the substrate. Inhibitory activity is monitored by measuring formation of the borate complex of the enol product at 305 nm using a Tecan Infinite F500 plate reader. In addition, the aqueous solubilities of several compounds were measured with a shake-flask procedure. Saturated solutions are filtered (polyethersulfone syringe, 0.2 μm pore) and analyzed by UV-vis spectroscopy (Agilent 8453).

MIF [2] = target: T1, MIF (Homo sapiens (Human), UniProt P14174); assay: Tautomerase assay using 4-hydroxyphenylpyruvate (HPP), initial virtual screening study; format: biochemical; settings: at 50 μM; HPP substrate
Text: Success in the past has come from exchange of the phenol for a 6:5 fused heteroaromatic incorporating a pyrrole or pyrazole that retains the hydrogen-bond donating character of phenol. However, the MIF active site is too constricted near Asn97 for this approach to be viable; addition of a methyl group ortho to the hydroxyl group for the compound in FIG. 1 leads to a ca. 100-fold loss in activity. Instead, interest has focused on direct replacement of the phenol by a pyrazole. […] Thus, an alternative series from the virtual screening and from de novo design was pursued, which provided the biaryltriazoles including 2. However, interest in 5 was renewed since in another phenol-containing inhibitor series rapid metabolic glucoronidation and sulfation were observed. It was decided to retest 5 in an HPP tautomerase assay using optimized protocols.

MIF [3] = target: T1, MIF; assay: HPP tautomerase assay (inhibition of the tautomerase activity of MIF); format: biochemical
Protocol: Inhibition of the tautomerase activity of MIF was measured using the substrate 4-hydroxyphenyl pyruvic acid (HPP) in a procedure largely adapted from previous reports. A solution of HPP (10 mM) in acetate buffer (0.5 M ammonium acetate, pH adjusted to 6.0) was prepared and allowed to incubate overnight in the dark at room temperature to allow for equilibration of the keto and enol forms. Following the incubation period, the HPP solution was stored at 4° C. and used for no more than a week. […] A negative control (containing water and DMSO in lieu of protein and inhibitor, respectively) and a positive control (containing DMSO in lieu of inhibitor) were also prepared. The reaction began upon the addition of HPP solution (final concentration: 1.0 mM and 2.5 mM). […] Absorbance was measured three times for each [inhibitor]-[HPP] combination. […] Reported Ki values represent the average value obtained from two assays performed on different days. (R)-ISO-1 (purchased from Santa Cruz Biotechnology) was used as a control.
Recombinant human MIF was expressed and purified according to published protocols. Briefly, for the purification of MIF, E. coli cell pellets were suspended in lysis buffer (20 mM Tris, pH 7.5; 20 mM sodium chloride; 10% glycerol; 2 mM magnesium chloride; 1 cOmplete mini protease inhibitor cocktail tablet per 250 mL of buffer). The solution was sonicated and centrifuged at 27,000G for 30 mins. The supernatant was filtered through a 0.22 μm syringe filter and loaded on a GE Healthcare Hi-Trap SP HP column in sequence with a GE Healthcare Hi-Trap Q SP column equilibrated with a buffer composed of 20 mM NaCl and 20 mM Tris, pH 7.5. […] To achieve highest purity, the flow-through was further purified with a GE Healthcare Superdex 200 column. The purified protein was concentrated with a 10 kDa centrifugal filter unit to 30 mg/mL, flash-frozen in liquid nitrogen, and stored at −80° C.
As in prior studies, the inhibition constants Ki were determined using HPP as the substrate. […] In addition, the aqueous solubilities of several compounds were measured with a shake-flask procedure.

[4] = HPP as substrate, MIF tautomerase, read-out: Experimental inhibition constants, Ki
[5] = Table 3, HPP as substrate, unit inferred, read-out: HPP Ki

T1 sequence (P14174 2-115): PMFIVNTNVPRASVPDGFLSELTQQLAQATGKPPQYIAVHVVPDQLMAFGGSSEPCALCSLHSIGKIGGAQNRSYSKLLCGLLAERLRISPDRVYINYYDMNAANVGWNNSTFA

SMILES | Ki (MIF [3]; [4]) | Ki (MIF [3]; [5]) | other results
O=C(O)c1cc(-c2c[nH]nc2F)ccc1Oc1ccc2ccccc2c1 [Compound 8n, 5-(3-Fluoro-1H-pyrazol-4-yl)-2-(naphthalen-2-yloxy)benzoic acid] |  |  | solubility at 48 h [1]: 681 µg/mL (≈ 1960 µM)
O=C(O)c1cccc(-c2cn[nH]c2)c1 [Compound 5, reference compound] |  |  | aqueous solubility [1]: 927+88 μg/mL; maximum inhibition (MIF [2]): 30%
O=C(O)c1cc(-c2c[nH]nc2F)ccc1Oc1cccc(-c2ccc(OCCCN3CCOCC3)cc2)c1 [Compound 8x, 5-(3-Fluoro-1H-pyrazol-4-yl)-2-((4′-(3-morpholinopropoxy)-[1,1′-biphenyl]-3-yl)oxy)benzoic acid] |  |  | solubility at 48 h [1]: 34.6 µg/mL and 67 µM
NS(=O)(=O)c1cc(-c2cn[nH]c2)ccc1Oc1ccc2ccccc2c1 [Compound 8i, 2-(Naphthalen-2-yloxy)-5-(1H-pyrazol-4-yl)benzenesulfonamide] | 5600 nM |  | solubility at 48 h [1]: 55.2 µg/mL (≈ 151 µM)
O=C(O)c1cc(-c2cn[nH]c2)ccc1Oc1ccc2ccccc2c1 [Compound 8g, 2-(Naphthalen-2-yloxy)-5-(1H-pyrazol-4-yl)benzoic acid] | 4300 nM |  | solubility at 48 h [1]: 739 µg/mL (≈ 2240 µM)
O=C(O)c1cc(-c2c[nH]nc2F)ccc1Oc1ccc2c(C3CC3)cccc2c1 [Compound 9z, 2-((5-cyclopropylnaphthalen-2-yl)oxy)-5-(3-fluoro-1H-pyrazol-4-yl)benzoic acid] |  | 110 nM | 
O=C(O)c1cc(-c2cn[nH]c2)ccc1Oc1cc2ccccc2c2ccccc12 [Compound 8j, 2-(Phenanthren-9-yloxy)-5-(1H-pyrazol-4-yl)benzoic acid] | 2300 nM |  | 
CCOc1ccc(-c2cccc(Oc3ccc(-c4c[nH]nc4F)cc3C(=O)O)c2)cc1 [Compound 8w, 2-((4′-Ethoxy-[1,1′-biphenyl]-3-yl)oxy)-5-(3-fluoro-1H-pyrazol-4-yl)benzoic acid] | 75 nM |  | Ki (MIF [3]): ~70 nM; solubility at 48 h [1]: 1.7 ± 0.7 µg/mL (≈ 4.06 µM)
O=C(O)c1cc(-c2cn[nH]c2)ccc1Oc1cc2c3c(cccc3c1)C=C2 [Compound 9q, 2-(acenaphthylen-4-yloxy)-5-(1H-pyrazol-4-yl)benzoic acid] |  | 1500 nM | 
O=C(O)c1cc(-c2cn[nH]c2)ccc1Oc1ccc(Cl)cc1 [Compound 9g, 2-(4-chlorophenoxy)-5-(1H-pyrazol-4-yl)benzoic acid] |  | 8400 nM | 
O=C(O)c1cc(-c2c[nH]nc2F)ccc1Oc1cccc(-c2ncccn2)c1 [Compound 9aa, 5-(3-fluoro-1H-pyrazol-4-yl)-2-(3-(pyrimidin-2-yl)phenoxy)benzoic acid] |  | 230 nM | 
O=C(O)c1cc(-c2c[nH]nc2F)ccc1Oc1cccc(-c2ccc(CCN3CCOCC3)cc2)c1 [Compound 9bb, 5-(3-fluoro-1H-pyrazol-4-yl)-2-((4′-(2-morpholinoethyl)-[1,1′-biphenyl]-3-yl)oxy)benzoic acid] |  | 330 nM | 
Cc1ccc2ccc(Oc3ccc(-c4cn[nH]c4)cc3C(=O)O)cc2c1 [Compound 9u, 2-((7-methylnaphthalen-2-yl)oxy)-5-(1H-pyrazol-4-yl)benzoic acid] |  | 1900 nM | 
O=C(O)c1cc(-c2c[nH]nc2F)ccc1Oc1cccc(C(F)(F)F)c1 [Compound 9w, 5-(3-fluoro-1H-pyrazol-4-yl)-2-(3-(trifluoromethyl)phenoxy) benzoic acid] |  | 710 nM | 
O=C(O)c1cc(-c2c[nH]nc2F)ccc1Oc1ccc(-c2ccccc2)cc1 [Compound 8t, 2-([1,1′-Biphenyl]-4-yloxy)-5-(3-fluoro-1H-pyrazol-4-yl)benzoic acid] | 350 nM |  | 
CS(=O)(=O)c1cc(-c2cn[nH]c2)ccc1Oc1ccc2ccccc2c1 [Compound 8h, 4-(3-(Methylsulfonyl)-4-(naphthalen-2-yloxy)phenyl)-1H-pyrazole] | 6400 nM |  | 
O=C(O)c1cc(-c2cn[nH]c2)ccc1-c1ccccc1 [Compound 6a, 4-(1H-pyrazol-4-yl)-[1,1′-biphenyl]-2-carboxylic acid] | 20600 nM |  | 
CN(c1ccc2ccccc2c1)c1ccc(-c2cn[nH]c2)cc1C(=O)O [Compound 7b, 2-(Methyl(naphthalen-2-yl)amino)-5-(1H-pyrazol-4-yl)benzoic acid] | 4200 nM |  | 
